Patent publication US20260000692A1, “Substituted N-(Pyridin-2-yl)Acetamide Derivatives as CDK12/13 Inhibitors” (Aurigene Oncology Limited, priority 2022, published 2026)

Target: CDK12 (Homo sapiens, UniProt Q9NYV4)
Experiment: Biochemical assay for CDK12 (LANCE TR-FRET, IC50 determination)
Conditions: for IC50: CDK12, IC50 class, read-out: IC50 μM (in range); for CDK12 % Inhibition @ 10 μM / inhibition at 10 µM: compound at 10 μM; for inhibition at 10 µM: read-out: CDK12 % Inhibition @ 10 μM
Method: Biochemical Assay for CDK12 (IC50 Determination):
The inhibitory activity of the test compounds was assessed by the LANCE TR-FRET assay, which detects the ATP-dependent phosphorylation of an ULight-4E-BP1 (Thr37/Thr46) substrate peptide (100 nM) by CDK12 (30 nM). Briefly, the enzyme reaction was run in reaction buffer (25 mM HEPES (pH 7.5), 10 mM MgCl2, […], 0.01% Triton x, 1 mM DTT). The assay was performed in 384-well plate format. The end concentration of the ATP substrate was […], and that of the ULight-4E-BP1 (Thr37/Thr46) substrate peptide was 100 nM, and of CDK12 was 30 nM. Pre-incubation of the compound and enzyme was performed for 60 min at room temperature. After 60 min incubation at room temperature, the reaction was terminated by the addition of 40 mM EDTA and 0.5 nM Eu-labeled anti-phospho-eIF4E-binding protein (Thr37/46) antibody in LANCE detection buffer. Time-resolved fluorescence (excitation, 320 nm; emission donor, 615 nm; emission acceptor, 665 nm) was monitored by using 2030 multilabel reader Victor5 (PerkinElmer). The Fluorescence emission of the samples were measured and the ratio was plotted against the compound concentration to generate the dose response curve. The IC50 values were derived by fitting a sigmoidal dose-response curve to a plot of assay readout over inhibitor concentration. All fits were computed with the program Prism 5.03 (Graph Pad Software, San Diego, CA). The % inhibition values at […] were calculated with respect to enzyme activity.

Sequence of CDK12 (Q9NYV4 whole entry): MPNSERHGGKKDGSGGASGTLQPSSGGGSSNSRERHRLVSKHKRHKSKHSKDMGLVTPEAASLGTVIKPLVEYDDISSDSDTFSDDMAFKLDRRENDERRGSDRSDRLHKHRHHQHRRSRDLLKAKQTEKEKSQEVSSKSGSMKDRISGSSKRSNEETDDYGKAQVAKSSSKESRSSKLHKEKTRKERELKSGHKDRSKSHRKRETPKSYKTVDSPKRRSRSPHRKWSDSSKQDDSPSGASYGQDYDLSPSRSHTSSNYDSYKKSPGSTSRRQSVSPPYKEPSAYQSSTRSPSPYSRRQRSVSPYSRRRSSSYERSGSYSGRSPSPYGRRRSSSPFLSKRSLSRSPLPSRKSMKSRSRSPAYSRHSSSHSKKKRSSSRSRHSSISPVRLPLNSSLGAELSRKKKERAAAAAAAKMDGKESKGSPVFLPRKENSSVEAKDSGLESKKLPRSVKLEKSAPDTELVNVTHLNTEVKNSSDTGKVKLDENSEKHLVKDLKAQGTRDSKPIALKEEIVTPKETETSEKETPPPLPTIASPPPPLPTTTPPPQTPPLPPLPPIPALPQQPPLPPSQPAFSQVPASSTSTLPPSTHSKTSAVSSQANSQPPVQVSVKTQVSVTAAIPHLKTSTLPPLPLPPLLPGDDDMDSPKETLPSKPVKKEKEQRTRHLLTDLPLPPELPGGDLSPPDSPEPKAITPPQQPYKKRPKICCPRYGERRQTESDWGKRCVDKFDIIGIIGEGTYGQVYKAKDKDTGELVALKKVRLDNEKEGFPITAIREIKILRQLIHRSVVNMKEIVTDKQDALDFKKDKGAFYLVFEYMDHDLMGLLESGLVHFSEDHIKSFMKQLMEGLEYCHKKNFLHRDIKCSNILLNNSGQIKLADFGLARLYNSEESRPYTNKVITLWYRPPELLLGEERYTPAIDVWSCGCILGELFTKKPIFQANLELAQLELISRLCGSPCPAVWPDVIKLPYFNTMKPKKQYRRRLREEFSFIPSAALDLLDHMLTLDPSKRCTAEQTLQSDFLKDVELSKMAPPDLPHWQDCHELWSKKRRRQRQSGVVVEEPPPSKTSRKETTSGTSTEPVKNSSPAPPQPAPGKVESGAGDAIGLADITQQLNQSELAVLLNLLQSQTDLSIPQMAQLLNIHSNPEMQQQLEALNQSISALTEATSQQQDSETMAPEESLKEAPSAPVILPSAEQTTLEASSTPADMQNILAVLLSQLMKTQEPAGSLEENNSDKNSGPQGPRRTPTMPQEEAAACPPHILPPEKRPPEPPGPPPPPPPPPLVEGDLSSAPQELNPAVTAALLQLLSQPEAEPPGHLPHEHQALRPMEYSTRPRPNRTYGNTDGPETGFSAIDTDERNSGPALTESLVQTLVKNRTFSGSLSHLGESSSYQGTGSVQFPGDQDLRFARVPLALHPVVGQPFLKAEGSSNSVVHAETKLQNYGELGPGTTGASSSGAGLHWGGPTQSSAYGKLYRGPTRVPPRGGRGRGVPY
Sequence of CDK12 (O75909 whole entry partner): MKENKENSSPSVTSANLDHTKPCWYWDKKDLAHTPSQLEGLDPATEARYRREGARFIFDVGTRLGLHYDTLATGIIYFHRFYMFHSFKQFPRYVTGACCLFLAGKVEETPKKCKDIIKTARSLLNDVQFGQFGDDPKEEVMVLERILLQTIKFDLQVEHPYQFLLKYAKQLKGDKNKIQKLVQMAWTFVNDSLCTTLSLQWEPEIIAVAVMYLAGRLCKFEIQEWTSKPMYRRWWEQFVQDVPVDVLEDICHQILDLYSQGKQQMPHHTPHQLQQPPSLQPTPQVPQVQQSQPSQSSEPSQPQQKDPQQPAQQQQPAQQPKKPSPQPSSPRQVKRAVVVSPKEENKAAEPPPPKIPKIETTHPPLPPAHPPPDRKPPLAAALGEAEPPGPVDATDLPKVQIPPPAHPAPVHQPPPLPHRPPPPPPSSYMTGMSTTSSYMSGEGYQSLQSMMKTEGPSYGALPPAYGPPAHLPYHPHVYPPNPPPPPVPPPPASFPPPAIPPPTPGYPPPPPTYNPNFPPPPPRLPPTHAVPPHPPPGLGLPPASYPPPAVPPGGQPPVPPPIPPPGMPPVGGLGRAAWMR

SMILES | IC50 [µM] | CDK12 % Inhibition @ 10 μM [%] | inhibition at 10 µM [%]
CNC(=O)C(C)Oc1cc(NC(=O)Cc2ccc(C3=CCN(C#N)CC3)nc2)ncc1Cl (stereo not drawn) [Compound 1, 2-((5-chloro-2-(2-(1′-cyano-1′,2′,3′,6′-tetrahydro-[2,4′-bipyridin]-5-yl)acetamido)pyridin-4-yl)oxy)-N-methylpropanamide] | < 0.01 |  | 92
N#CN1CC=C(c2ccc(CC(=O)Nc3ccc(Cl)cn3)cn2)CC1 [Compound 4, N-(5-chloropyridin-2-yl)-2-(1′-cyano-1′,2′,3′,6′-tetrahydro-[2,4′-bipyridin]-5-yl)acetamide] | 0.01 to 0.1 |  | 75
N#CN1CCC=C(c2ccc(CC(=O)Nc3ccc(Cl)cn3)cn2)C1 [Compound 5, N-(5-chloropyridin-2-yl)-2-(1′-cyano-1′,2′,5′,6′-tetrahydro-[2,3′-bipyridin]-5-yl)acetamide] | 0.01 to 0.1 |  | 75
N#CN1CC=C(c2ccc(CC(=O)Nc3ccc(Cl)cn3)cn2)C1 [Compound 6, N-(5-chloropyridin-2-yl)-2-(6-(1-cyano-2,5-dihydro-1H-pyrrol-3-yl)pyridin-3-yl)acetamide] | < 0.01 |  | 78
N#CN1CC=C(c2ccc(CC(=O)Nc3cc(N4CCOCC4)c(Cl)cn3)cn2)CC1 [Compound 7, N-(5-chloro-4-morpholinopyridin-2-yl)-2-(1′-cyano-1′,2′,3′,6′-tetrahydro-[2,4′-bipyridin]-5-yl)acetamide] | 0.01 to 0.1 |  | 88
COc1cc(NC(=O)Cc2ccc(C3=CCN(C#N)CC3)nc2)ncc1Cl [Compound 8, N-(5-chloro-4-methoxypyridin-2-yl)-2-(1′-cyano-1′,2′,3′,6′-tetrahydro-[2,4′-bipyridin]-5-yl)acetamide] | < 0.01 |  | 82
CN1CCN(c2cc(NC(=O)Cc3ccc(C4=CCN(C#N)CC4)nc3)ncc2Cl)CC1 [Compound 9, N-(5-chloro-4-(4-methylpiperazin-1-yl)pyridin-2-yl)-2-(1′-cyano-1′,2′,3′,6′-tetrahydro-[2,4′-bipyridin]-5-yl)acetamide] |  |  | 64
CN1CCC(Oc2cc(NC(=O)Cc3ccc(C4=CCN(C#N)CC4)nc3)ncc2Cl)C1 (stereo not drawn) [Compound 10, N-(5-chloro-4-((1-methylpyrrolidin-3-yl)oxy)pyridin-2-yl)-2-(1′-cyano-1′,2′,3′,6′-tetrahydro-[2,4′-bipyridin]-5-yl)acetamide] | < 0.01 |  | 72
CN1CCC(Oc2cc(NC(=O)Cc3ccc(C4=CCN(C#N)CC4)nc3)ncc2Cl)CC1 [Compound 11, N-(5-chloro-4-((1-methylpiperidin-4-yl)oxy)pyridin-2-yl)-2-(1′-cyano-1′,2′,3′,6′-tetrahydro-[2,4′-bipyridin]-5-yl)acetamide] | 0.01 to 0.1 |  | 89
N#CN1CC=C(c2ccc(CC(=O)Nc3cc(OC4CCOC4)c(Cl)cn3)cn2)CC1 (stereo not drawn) [Compound 12, N-(5-chloro-4-((tetrahydrofuran-3-yl)oxy)pyridin-2-yl)-2-(1′-cyano-1′,2′,3′,6′-tetrahydro-[2,4′-bipyridin]-5-yl)acetamide] | < 0.01 |  | 84
Cc1cc(CC(=O)Nc2ccc(Cl)cn2)cnc1C1=CCN(C#N)CC1 [Compound 13, N-(5-chloropyridin-2-yl)-2-(1′-cyano-3-methyl-1′,2′,3′,6′-tetrahydro-[2,4′-bipyridin]-5-yl)acetamide] | 0.01 to 0.1 |  | 75
COCC(C)Oc1cc(NC(=O)Cc2ccc(C3=CCN(C#N)CC3)nc2)ncc1Cl (stereo not drawn) [Compound 14, N-(5-chloro-4-((1-methoxypropan-2-yl)oxy)pyridin-2-yl)-2-(1′-cyano-1′,2′,3′,6′-tetrahydro-[2,4′-bipyridin]-5-yl)acetamide] | < 0.01 |  | 96
N#CN1CC=C(c2ccc(CC(=O)Nc3cc(OC4COC4)c(Cl)cn3)cn2)CC1 [Compound 15, N-(5-chloro-4-(oxetan-3-yloxy)pyridin-2-yl)-2-(1′-cyano-1′,2′,3′,6′-tetrahydro-[2,4′-bipyridin]-5-yl)acetamide] | < 0.01 |  | 96
N#CN1CCC(c2ccc(CC(=O)Nc3ccc(Cl)cn3)cn2)C1 (stereo not drawn) [Compound 16, N-(5-chloropyridin-2-yl)-2-(6-(1-cyanopyrrolidin-3-yl)pyridin-3-yl)acetamide] | 0.01 to 0.1 |  | 89
N#CN1CC=C(c2ccc(CC(=O)Nc3cc(C4(O)COC4)c(Cl)cn3)cn2)CC1 [Compound 17, N-(5-chloro-4-(3-hydroxyoxetan-3-yl)pyridin-2-yl)-2-(1′-cyano-1′,2′,3′,6′-tetrahydro-[2,4′-bipyridin]-5-yl)acetamide] | < 0.01 |  | 92
N#CN1CC=C(c2ncc(CC(=O)Nc3ccc(Cl)cn3)cc2F)CC1 [Compound 18, N-(5-chloropyridin-2-yl)-2-(1′-cyano-3-fluoro-1′,2′,3′,6′-tetrahydro-[2,4′-bipyridin]-5-yl)acetamide] | 0.01 to 0.1 |  | 87
N#CN1CC=C(c2ccc(CC(=O)Nc3cc(OC4CCC4)c(Cl)cn3)cn2)CC1 [Compound 28, N-(5-chloro-4-cyclobutoxypyridin-2-yl)-2-(1′-cyano-1′,2′,3′,6′-tetrahydro-[2,4′-bipyridin]-5-yl)acetamide] | < 0.01 |  | 95

Results, then the molecule that gave them:

IC50 [µM] | CDK12 % Inhibition @ 10 μM [%] | inhibition at 10 µM [%] | SMILES
0.01 to 0.1 | 77 |  | N#CN1CCCC(c2ccc(CC(=O)Nc3cc(O[C@@H]4CCOC4)c(Cl)cn3)cn2)C1 (single isomer, unassigned) [Compound 94]
> 0.1 |  | 91 | N#CN1CCCC(c2ccc(CC(=O)Nc3cc(O[C@H]4CCOC4)c(Cl)cn3)cn2)C1 (single isomer, unassigned) [Compound 96]
0.01 to 0.1 | 96 |  | N#CN1CCCC(c2ccc(CC(=O)Nc3cc(O[C@H]4CCOC4)c(Cl)cn3)cn2)C1 (single isomer, unassigned) [Compound 97]
0.01 to 0.1 |  | 86 | CN1CCC(Oc2cc(NC(=O)Cc3ccc(C4=CCN(C#N)CC4)nc3)ncc2Cl)C1 (stereo in doubt) [Compound 29, (R)-N-(5-chloro-4-((1-methylpyrrolidin-3-yl)oxy)pyridin-2-yl)-2-(1′-cyano-1′,2′,3′,6′-tetrahydro-[2,4′-bipyridin]-5-yl)acetamide]
0.01 to 0.1 |  | 82 | CN1CCC(Oc2cc(NC(=O)Cc3ccc(C4=CCN(C#N)CC4)nc3)ncc2Cl)C1 (stereo in doubt) [Compound 30, (S)-N-(5-chloro-4-((1-methylpyrrolidin-3-yl)oxy)pyridin-2-yl)-2-(1′-cyano-1′,2′,3′,6′-tetrahydro-[2,4′-bipyridin]-5-yl)acetamide]
< 0.01 |  | 91 | N#CN1CC=C(c2ccc(CC(=O)Nc3cc(OC4CCOCC4)c(Cl)cn3)cn2)CC1 [Compound 19, N-(5-chloro-4-((tetrahydro-2H-pyran-4-yl)oxy)pyridin-2-yl)-2-(1′-cyano-1′,2′,3′,6′-tetrahydro-[2,4′-bipyridin]-5-yl)acetamide]
< 0.01 |  | 109 | CCOc1cc(NC(=O)Cc2ccc(C3=CCN(C#N)CC3)nc2)ncc1Cl [Compound 20, N-(5-chloro-4-ethoxypyridin-2-yl)-2-(1′-cyano-1′,2′,3′,6′-tetrahydro-[2,4′-bipyridin]-5-yl)acetamide]
< 0.01 |  | 94 | CC(C)Oc1cc(NC(=O)Cc2ccc(C3=CCN(C#N)CC3)nc2)ncc1Cl [Compound 21, N-(5-chloro-4-isopropoxypyridin-2-yl)-2-(1′-cyano-1′,2′,3′,6′-tetrahydro-[2,4′-bipyridin]-5-yl)acetamide]
< 0.01 |  | 91 | COCCOc1cc(NC(=O)Cc2ccc(C3=CCN(C#N)CC3)nc2)ncc1Cl [Compound 22, N-(5-chloro-4-(2-methoxyethoxy)pyridin-2-yl)-2-(1′-cyano-1′,2′,3′,6′-tetrahydro-[2,4′-bipyridin]-5-yl)acetamide]
< 0.01 |  | 96 | CC(C)(O)c1cc(NC(=O)Cc2ccc(C3=CCN(C#N)CC3)nc2)ncc1Cl [Compound 23, N-(5-chloro-4-(2-hydroxypropan-2-yl)pyridin-2-yl)-2-(1′-cyano-1′,2′,3′,6′-tetrahydro-[2,4′-bipyridin]-5-yl)acetamide]
< 0.01 |  | 99 | N#CN1CC=C(c2ccc(CC(=O)Nc3cc(O[C@@H]4CCOC4)c(Cl)cn3)cn2)CC1 [Compound 26, (R)-N-(5-chloro-4-((tetrahydrofuran-3-yl)oxy)pyridin-2-yl)-2-(1′-cyano-1′,2′,3′,6′-tetrahydro-[2,4′-bipyridin]-5-yl)acetamide]
< 0.01 |  | 93 | N#CN1CC=C(c2ccc(CC(=O)Nc3cc(O[C@H]4CCOC4)c(Cl)cn3)cn2)CC1 [Compound 27, (S)-N-(5-chloro-4-((tetrahydrofuran-3-yl)oxy)pyridin-2-yl)-2-(1′-cyano-1′,2′,3′,6′-tetrahydro-[2,4′-bipyridin]-5-yl)acetamide]
